Drawing on PubChem BioAssay (NCI), this text covers GI50 and TGI for 8 compounds.

Some test systems named below: SF-268 CNS; NCI-H460 lung; SK-MEL-5 melanoma; SNB-75 CNS; M14 melanoma; MCF7 breast; MALME-3M melanoma; 786-0 renal; A498 renal; OVCAR-5 ovarian.
Common to all, as to assay: NCI-60 cell line screen, 48 h

SMILES strings stand for the structures. Where “and” joins values, the source holds several entries; their conditions need not be identical. Equal values may be shown once.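 Exposure lasted 48 hours, with cells grown in 96-well plates and compounds tested at five concentrations. Abbreviation: GI50, concentration required for 50% inhibition of growth. TGI: concentration producing complete growth inhibition.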 A value given as a limit tells only on which side of the number the result lay.

As for `CCN1CCN(c2cc(C)c3cc(NC(=O)c4ccc(OC)c(OC)c4)ccc3n2)CC1`, the GI50 in the assay on SF-268 CNS was 9190 nM; in the assay on NCI-H460 lung, 10500 nM; with SK-MEL-5 melanoma, 1170 nM; with SNB-75 CNS, 5540 nM; in the assay with M14 melanoma it was 8880 nM; in the assay on MCF7 breast it was 572 nM. The GI50 with MALME-3M melanoma is 13300 nM; with 786-0 renal, 7120 nM; in the assay on A498 renal it was 16400 nM; with OVCAR-5 ovarian it was 15700 nM. In addition, the TGI in the assay on SF-268 CNS was over 75100 nM; in the assay on NCI-H460 lung, 31300 nM; in the assay on SK-MEL-5 melanoma it was over 42300 nM; with SNB-75 CNS, over 61300 nM; with M14 melanoma, over 100000 nM; in the assay with MCF7 breast, over 100000 nM. Moreover, the TGI is 31300 nM in the assay with MALME-3M melanoma, over 55300 nM with 786-0 renal, 41100 nM with A498 renal and over 100000 nM in the assay with OVCAR-5 ovarian.

In the case of `CCOc1ccc(/C=C2\N=C(c3ccc([N+](=O)[O-])cc3)OC2=O)cc1`, the TGI in the assay on SF-268 CNS, in the assay on NCI-H460 lung, with SK-MEL-5 melanoma, in the assay with SNB-75 CNS, in the assay with M14 melanoma and in the assay with MCF7 breast was over 100000 nM throughout. For the same compound, the TGI in the assay on MALME-3M melanoma, with 786-0 renal, in the assay on A498 renal and with OVCAR-5 ovarian was over 100000 nM in each case.

As to `COc1ccc2nc3ccccc3c(NCc3ccc(F)cc3)c2c1`, the GI50 with SF-268 CNS is 2200 nM; in the assay on NCI-H460 lung, 1780 nM; with SK-MEL-5 melanoma, 2000 nM; in the assay with SNB-75 CNS it was 2460 nM; in the assay with M14 melanoma it was 2230 nM; in the assay with MCF7 breast, 1170 nM. For the same compound, the GI50 with MALME-3M melanoma is 1460 nM; in the assay with 786-0 renal it was 1870 nM; in the assay on A498 renal it was 1620 nM; with OVCAR-5 ovarian, 2250 nM. For the same compound, the TGI was found to be 8710 nM in the assay with SF-268 CNS; 6180 nM in the assay with NCI-H460 lung; 7200 nM in the assay with SK-MEL-5 melanoma; 9200 nM with SNB-75 CNS; 8180 nM in the assay on M14 melanoma; 3520 nM in the assay with MCF7 breast. In addition, the TGI with MALME-3M melanoma stood at 5380 nM; in the assay with 786-0 renal, 6820 nM; in the assay with A498 renal it was 5740 nM; with OVCAR-5 ovarian, 8210 nM.

On to `Cc1cc(N[C@@H]2CCC[C@H](Nc3ccnc4cc(Cl)ccc34)C2)nc(N2CCCCCC2)n1`, for which the GI50 in the assay with SF-268 CNS is 1540 nM; in the assay on NCI-H460 lung, 1580 nM; with SK-MEL-5 melanoma, 1860 nM; in the assay with SNB-75 CNS, 1430 nM; in the assay on M14 melanoma it was 1550 nM; in the assay with MCF7 breast, 1430 nM. For the same compound, the GI50 with MALME-3M melanoma was 1830 nM; with 786-0 renal, 1470 nM; in the assay on A498 renal it was 1740 nM; in the assay with OVCAR-5 ovarian, 2060 nM. The TGI in the assay with SF-268 CNS worked out at 3390 nM; with NCI-H460 lung it was 3200 nM; in the assay on SK-MEL-5 melanoma, 3270 nM; in the assay with SNB-75 CNS, 3140 nM; with M14 melanoma, 3290 nM; in the assay with MCF7 breast, 3030 nM. The TGI in the assay on MALME-3M melanoma was 3420 nM; in the assay on 786-0 renal, 2900 nM; with A498 renal, 3200 nM; with OVCAR-5 ovarian, 6260 nM.

Consider `CNCCOC(=O)/C=C1\CC[C@H]2[C@@H]([C@@H](O)C(=O)[C@@H]3[C@]2(C)CC[C@H](O)[C@]3(C)C(=O)OC)[C@H]1C`, for which the GI50 is 233 nM in the assay on SF-268 CNS; 201 nM in the assay on NCI-H460 lung; 252 nM with SK-MEL-5 melanoma; 396 nM in the assay with SNB-75 CNS; 1080 nM in the assay with M14 melanoma; 368 nM in the assay with MCF7 breast. For the same compound, the GI50 was 324 nM with MALME-3M melanoma, 226 nM with 786-0 renal, 262 nM in the assay with A498 renal and 1180 nM in the assay with OVCAR-5 ovarian. In addition, the TGI worked out at 590 nM in the assay with SF-268 CNS; 429 nM in the assay on NCI-H460 lung; 734 nM in the assay on SK-MEL-5 melanoma; 1740 nM in the assay with SNB-75 CNS; 2460 nM in the assay on M14 melanoma; 1700 nM with MCF7 breast. For the same compound, the TGI in the assay on MALME-3M melanoma was 1420 nM; in the assay on 786-0 renal, 681 nM; with A498 renal it was 2530 nM; in the assay with OVCAR-5 ovarian, 2680 nM.

As to `O=C(Nc1cc(C(F)(F)F)cc(C(F)(F)F)c1)c1cc(Cl)ccc1O`, the GI50 in the assay on SF-268 CNS was 210 nM; in the assay on NCI-H460 lung, 271 nM and 290 nM; in the assay on SK-MEL-5 melanoma, 63.2 nM and 94 nM; in the assay on SNB-75 CNS, 159 nM and 172 nM; in the assay on M14 melanoma, 291 nM and 273 nM; in the assay on MCF7 breast, 302 nM and 269 nM. Also, the GI50 in the assay on MALME-3M melanoma was 225 nM and 200 nM; with 786-0 renal, 269 nM and 293 nM; with A498 renal it was 45 nM and < 14.1 nM; with OVCAR-5 ovarian it was 305 nM and 357 nM. Further, the TGI in the assay with SF-268 CNS is 2100 nM and 2820 nM; in the assay on NCI-H460 lung, 1420 nM and 1940 nM; in the assay with SK-MEL-5 melanoma it was 206 nM and 257 nM; with SNB-75 CNS, 586 nM; in the assay with M14 melanoma, 1250 nM and 1540 nM; in the assay with MCF7 breast, > 10000 nM and 5260 nM. In addition, the TGI in the assay with MALME-3M melanoma was 1160 nM and 668 nM; in the assay on 786-0 renal it was 881 nM and 1150 nM; with A498 renal, 241 nM and 178 nM; in the assay on OVCAR-5 ovarian, > 5030 nM and 15900 nM.

With `Cc1nnc(Nc2ccc(NC(=O)Nc3ccc(Cl)cc3)cc2)c2ccccc12`, the GI50 in the assay with SF-268 CNS was 2570 nM; in the assay with NCI-H460 lung, 3460 nM; in the assay on SK-MEL-5 melanoma, 1850 nM; with SNB-75 CNS it was 1910 nM; with M14 melanoma, 1760 nM; with MCF7 breast it was 2210 nM. The GI50 with MALME-3M melanoma is 2170 nM; with 786-0 renal, 1710 nM; in the assay on A498 renal, 3210 nM; with OVCAR-5 ovarian it was 2100 nM. In addition, the TGI was determined as 7170 nM in the assay with SF-268 CNS; 11700 nM in the assay on NCI-H460 lung; 3500 nM with SK-MEL-5 melanoma; 5490 nM in the assay on SNB-75 CNS; 3570 nM with M14 melanoma; 10900 nM with MCF7 breast. Further, the TGI in the assay on MALME-3M melanoma turned out to be 4790 nM; in the assay with 786-0 renal, 3340 nM; with A498 renal, 10500 nM; in the assay on OVCAR-5 ovarian, 4990 nM.

Regarding `O=C(Nc1ccc(Br)cc1F)c1cc(Cl)ccc1O`, the GI50 with SF-268 CNS is 676 nM; with NCI-H460 lung, 487 nM; with SK-MEL-5 melanoma it was 273 nM; with SNB-75 CNS it was 202 nM; with M14 melanoma, 585 nM; with MCF7 breast it was 1840 nM. Further, the GI50 in the assay on MALME-3M melanoma was 434 nM; with 786-0 renal, 2540 nM; in the assay on A498 renal it was 160 nM; in the assay with OVCAR-5 ovarian it was 3670 nM. Moreover, the TGI is 9960 nM in the assay on SF-268 CNS; over 66500 nM in the assay on NCI-H460 lung; 815 nM in the assay with SK-MEL-5 melanoma; 2400 nM with SNB-75 CNS; 3580 nM in the assay with M14 melanoma; over 100000 nM in the assay on MCF7 breast. Moreover, the TGI in the assay with MALME-3M melanoma was 2670 nM; in the assay on 786-0 renal, 7620 nM; in the assay on A498 renal it was 604 nM; with OVCAR-5 ovarian it was over 100000 nM.
